Assay results as given in patent US4728659A, “Aminomethyl derivatives and preparation process thereof as well as platelet aggregation inhibitors containing same” (SS Pharmaceutical Co., Ltd., priority 1984, dated 1988).
Values after ≈ are worked out from the molar mass of the structure shown.

Key:
[1] = Acute toxicity, intraperitoneal, mice; type: in vivo; settings: for abnormality observed / survival of mice: 200 mg/Kg intraperitoneal, five ddY male mice, after 7 days; for LD50 at 168 h: mouse, in vivo, ip
Description: Each of certain sample compounds (which had been obtained in Examples 6, 7, 10 and 15-17, which will be given herein) was dissolved in water and was then administered intraperitoneally at a dose of 200 mg/Kg to a group of five ddY male mice. Those mice were fed for 7 days while observing them.

[2] = test system: platelet aggregation by arachidonic acid; experiment: Inhibition of aggregation of rabbit platelets (PRP) by arachidonic acid; type: cell-based; settings: Oryctolagus cuniculus, arachidonic acid 1 mM, compound added 2 minutes before agent, read-out: 50% Platelet Aggregation Inhibitory Concentration (IC50), Arachidonic acid
Description: (§1) Blood, which had been added with sodium citrate, was collected from a male rabbit (body weight: 3 Kg), which was then subjected suitably to centrifugation so that platelet-rich plasma (PRP) and platelet-poor plasma (PPP) were obtained. Inhibitory effects of certain sample compounds of this invention against aggregation by ADP (3 μM) and arachidonic acid (1 mM) were thereafter tested by a method known per se in the art. Each sample compound was dissolved in 5% dimethylsulfoxide (DMSO) and Tween 80 (trade mark) and was then added to PRP 2 minutes before addition of each of the aggregation agents to the PRP.

[3] = test system: platelet aggregation by ADP; experiment: Inhibition of aggregation of rabbit platelets (PRP) by ADP; type: cell-based; settings: Oryctolagus cuniculus, ADP 3 μM, compound added 2 minutes before agent, read-out: 50% Platelet Aggregation Inhibitory Concentration (IC50), ADP
Description: as §1

[4] = test system: platelet aggregation by ADP; experiment: Platelet aggregation by ADP in PRP after oral administration to rats (ex vivo); settings: 30 mg/Kg oral, male Wister rat, blood collected 2 hours after administration, 60 μM ADP, read-out: Percent inhibition against aggregation, ADP
Description: (§2) Each sample compound was orally administered at 30 mg/Kg to a male Wister rat (body weight: 220 g) which had fasted for 24 hours. Platelet-rich plasma was obtained from blood which had been collected 2 hours after the administration and added with sodium citrate. Changes in platelet aggregation upon addition of 60 μM of ADP or 100 μg/ml of collagen were observed. The number of platelets was adjusted to 6×10^5 platelets/mm^3 for aggregation by ADP and to 3×10^5 platelets/mm^3 for aggregation by collagen. Each of the sample compounds was dissolved in DMSO+Tween 80 (trade mark) prior to its administration.

[5] = test system: platelet aggregation by collagen; experiment: Platelet aggregation by collagen in PRP after oral administration to rats (ex vivo); settings: 30 mg/Kg oral, male Wister rat, blood collected 2 hours after administration, 100 μg/ml collagen, read-out: Percent inhibition against aggregation, collagen
Description: as §2

[6] = intraperitoneal, ddY male mice, 7 days observation

Compound	abnormality observed [1]	survival of mice [1]	LD50 at 168 h [1]	IC50 [2]	IC50 [3]	LD50 at 168 h [1, 6]	inhibition at 30 mg/kg [4]	inhibition at 30 mg/kg [5]
CCN(CC)CC#CC(OC(=O)c1cccnc1)c1ccc(OC)cc1 (centres unmarked) [Example 10]	no abnormality was observed	all the mice were still alive	> 200 mg/kg					
CCN(CC)CC#CC(=O)c1ccc(OC)cc1 [Example 4]				3.6 µg/mL (≈ 14.7 µM)	9 µg/mL (≈ 36.7 µM)			
CN(C)CC#CC(=O)c1ccccc1 [Example 15, N-(4-Phenyl-4-oxo-2-butynyl)-N,N-dimethylamine]				4.7 µg/mL (≈ 25.1 µM)	21 µg/mL (≈ 112 µM)	> 200 mg/kg		
CCN(CC)C/C=C/C(OC(=O)c1cccnc1)c1ccc(C)cc1 (centres unmarked) [Example 13]							30.5%	31.5%
CCN(CC)CC#CC(=O)c1ccc(C)cc1 [Example 1, N-[4-(p-Methylphenyl)-4-oxo-2-butynyl]-N,N-diethylamine]				2.5 µg/mL (≈ 10.9 µM)	7 µg/mL (≈ 30.5 µM)			
CCCN(CC)CC#CC(=O)c1ccccc1 [Example 16, N-(4-Phenyl-4-oxo-2-butynyl)-N-ethyl-N-n-propylamine]				4.3 µg/mL (≈ 18.8 µM)	18 µg/mL (≈ 78.5 µM)	> 200 mg/kg		
CCN(CC)CC#CC(OC(=O)c1cccnc1)c1ccc(C)cc1 (centres unmarked) [Example 7]	no abnormality was observed	all the mice were still alive	> 200 mg/kg				20.1%	37.6%
CCN(CC)CC#CC(OC(=O)c1cccnc1)c1ccccc1 (centres unmarked) [Example 6, N-(4-Nicotinoyloxy-4-phenyl-2-butynyl)-N,N-diethylamine]	no abnormality was observed	all the mice were still alive				> 200 mg/kg		
CCN(CC)CC#CC(=O)c1ccccc1 [Example 17]			> 200 mg/kg	4.5 µg/mL (≈ 20.9 µM)	20 µg/mL (≈ 92.9 µM)			
